Assay in all cases: growth of human tumour cells (NCI), 48 h
Assay [1] has as its system ACHN renal.
The subject of assay [2] is HCT-116 colon.
In assay [3] the test system is OVCAR-5 ovarian.
The test system of assay [4] is T-47D breast.
Assay [5] deals with HOP-62 NSCLC.
Assay [6] deals with M14 melanoma.
Assay [7] has as its system SR leukemia.
The test system of assay [8] is SW-620 colon.
In assay [9] the test system is COLO 205 colon.
The subject of assay [10] is NCI-H226 lung.

Drawing on PubChem BioAssay (NCI), this text covers GI50 and TGI for 8 compounds.

Structures are written as SMILES. “And” between values parts separate entries of the source, which are not always exact repeats. Identical values can stand only once.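 All cell lines were grown in 96-well plates and treated with compound for 48 hours. GI50 marks 50% less growth. At the TGI there is no net growth.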 Bounds are passed on as bounds.

With `COc1ccc2cc(C(=O)N3CCC([C@@H](C)C(=O)NCc4ccc5c(c4)OCO5)CC3)[nH]c2c1`, the GI50 was 48.1 µM in [1]; over 100 µM in assay [2]; over 100 µM in assay [3]; over 100 µM in assay [4]; 45.9 µM in assay [5]; over 100 µM in assay [6]. Also, the GI50 in assay [7], in [8], in [9] and in assay [10] was over 100 µM each time. For the same compound, the TGI in assay [1], in [2], in assay [3], in assay [4], in [5] and in assay [6] was over 100 µM in each case. The TGI in [7], in assay [8], in [9] and in assay [10] was over 100 µM each time.
Take `O=C(O)c1nn(-c2ccc(Cl)cc2)c2c1C(=O)c1ccccc1C2=O`: the TGI was over 100 µM in [1]; over 100 µM in assay [2]; over 100 µM in [3]; over 100 µM in [4]; over 100 µM in [5]; 63.9 µM in assay [6]. Further, the TGI in assay [7] was 78.7 µM; in [8] it was over 100 µM; in assay [9], over 100 µM; in [10], over 100 µM.
For `COc1nc2c(c(=O)n1C)CN(c1ccccc1)C(=O)CN2C`, the GI50 was 49.9 µM in assay [1]; 60.5 µM in [2]; over 100 µM in [3]; 11.1 µM in assay [4]; over 100 µM in assay [5]; 62.6 µM in [6]. Also, the GI50 was 17 µM in assay [7], over 100 µM in assay [8], 40.6 µM in assay [9] and 83.8 µM in [10]. The TGI in assay [1], in assay [2], in assay [3], in assay [4], in assay [5] and in [6] was over 100 µM in each case. For the same compound, the TGI in [7], in assay [8], in [9] and in assay [10] was over 100 µM in each case.
With `Cc1cc2[nH]c(=O)c3c4ncccc4cn3c2cc1C`, the GI50 in assay [1] was 2.44 µM; in [2], 1.92 µM; in [3], over 100 µM; in [4], 2.37 µM; in assay [5] it was 3.81 µM; in assay [7], 2.17 µM. For the same compound, the GI50 in assay [8] was 2.89 µM; in assay [10], 6.04 µM. In addition, the TGI in assay [1] is over 100 µM; in [2], 4.53 µM; in assay [3] it was over 100 µM; in assay [4], over 100 µM; in assay [5], 39.4 µM; in assay [7] it was 6.16 µM. Besides, the TGI in [8] and in [10] was over 100 µM throughout.
With `C#Cc1cccc(Nc2nc(C)nc3cc(NC(=O)CCl)ccc23)c1`, the GI50 in [1] was 2.98 µM; in assay [2] it was 0.654 µM; in assay [3] it was 0.953 µM; in assay [4] it was 3.17 µM; in [5], 3.65 µM; in assay [6] it was 2.55 µM. In addition, the GI50 was 0.561 µM in assay [7], 0.659 µM in [8], 3.26 µM in assay [9] and 3.06 µM in [10]. Also, the TGI in assay [1] is 6.67 µM; in [2] it was 2.66 µM; in assay [3], 5.38 µM; in [4] it was 7.69 µM; in assay [5], 7.85 µM; in assay [6], 6.17 µM. Further, the TGI amounted to 2.24 µM in assay [7], 1.93 µM in assay [8], 7.41 µM in assay [9] and 8.25 µM in assay [10].
`CN1C(c2ccccc2)CC(=NO)CC1c1ccccc1` (centres undefined): the TGI in [1] was over 100 µM; in assay [2], 33.6 µM; in assay [3], over 100 µM; in [5] it was over 100 µM; in assay [6], over 100 µM; in assay [7] it was > 100 µM and 80.1 µM. In addition, the figures for the TGI in [8], in assay [9] and in assay [10] were over 100 µM, 48 µM and over 100 µM, respectively. Besides, the GI50 in assay [2] was 33.9 µM; in assay [4], 46.4 µM; in [7] it was 24.9 µM; in assay [8], 43 µM; in assay [9], 33.6 µM.
Consider `COc1ccc(-c2oc3ncnc(N)c3c2-c2ccc(NC(=O)Nc3cc(C(F)(F)F)ccc3F)cc2)cc1`, for which the GI50 was 0.95 µM in assay [1]; 0.883 µM in assay [2]; 3.15 µM in assay [3]; 1.94 µM in assay [4]; 0.953 µM in [5]; 0.806 µM in [6]. For the same compound, the GI50 in assay [7] was 0.833 µM; in assay [8] it was 0.952 µM; in assay [9], 0.558 µM; in [10] it was 0.601 µM. Besides, the TGI in assay [1] was found to be 7.89 µM; in assay [2] it was 2.84 µM; in [3], 8.82 µM; in assay [4], 10.1 µM; in assay [5], 3.38 µM; in [6] it was 3.23 µM. Further, the TGI in [7] was 8.61 µM; in assay [8], 3.58 µM; in assay [9], 1.45 µM; in assay [10], 8.36 µM.
In the case of `COc1cc(OCCCN2CCCC2)ccc1Nc1ncc(Cl)c(Nc2ccccc2P(C)(C)=O)n1`, the GI50 in assay [1] was 2.46 µM; in [2], 1.74 µM; in [3], 1.07 µM; in assay [4], 8.71 µM; in [5], 2.11 µM; in assay [6] it was 2.58 µM. Moreover, the GI50 in assay [7] was 0.0173 µM; in assay [8], 1.37 µM; in assay [9] it was 1.08 µM; in assay [10], 1.59 µM. The TGI was found to be 16.7 µM in assay [1]; 7.24 µM in assay [2]; 22.5 µM in assay [3]; 54.3 µM in [4]; 12.5 µM in assay [5]; 12.3 µM in [6]. In addition, the figures for the TGI in assay [8], in [9] and in assay [10] were 5.36 µM, 2.81 µM and 6.45 µM, respectively.
